# Assay results from patent US20230303495A9, “PYRIDINE OXYNITRIDE, PREPARATION METHOD THEREFOR AND USE THEREOF” (Orion Corporation, priority 2019, published 2023).
# Target: T1, NaV1.8 (Homo sapiens, UniProt Q9Y5Y9)
# T1 construct: expressed in transfected cells
# Assay: Whole-cell patch clamp blocking activity against NaV1.8 channel current
# Format: cell-based
# Conditions: CHO cell line stably expressing Nav1.8 (SCN10A: NM_006514), patch clamp
# Procedure: 1. Test method: patch clamp technique was used to detect the influence of compounds on voltage-gated sodium channel (NaV) 1.1-1.8 subtype current
# 1) The specific information of the CHO cell line stably expressing the Nav1.8 channel was as follows: SCN10A: NM_006514
# 2) Cells were cultured in HAM'S/F-12 medium containing 10% fetal bovine serum and 10 μg/mL Blasticidin, 200 μg/mL Hygromycin B and 100 μg/mL Zeocin, culture temperature was 37° C. and the concentration of CO2 was 5%.
# 5) Patch clamp detection, before the experiment, the cells were separated with 0.25%—trypsin EDTA, inoculated into a 24 well plate with a density of 8*10^3 cells per well (final volume: 500 μL), tetracycline was added thereto, and experimental test was performed on the next day.
# 1) Extracellular fluid: 140 mM NaCl, 3.5 mM KCl, 2 mM CaCl2, 10 mM HEPES, 1.25 mM NaH2PO4, 1 mM MgCl2, 10 mM Glucose, pH=7.4 (NaOH).
# 2) Intracellular fluid: 50 mM CsCl, 10 mM NaCl, 10 mM HEPES, 20 mM EGTA, 60 mM CsF, pH=7.2 (CsOH).
# The voltage stimulation scheme of whole-cell patch clamp recording of Nav channel current was as follows: first the membrane potential of the cell was clamped at −130 mV, and then the voltage was stepped to −40 mV or −20 mV at 10 mv step intervals for 8 s. The clamping voltage was maintained at −120 mV, and data was collected repeatedly every 20 seconds. The peak amplitude of its inward current was measured to determine its half-inactivation voltage.
# The cell clamping potential was set at −120 mV. The resting and half-inactivation inhibition of sodium current was measured using double pulse mode. The double pulse mode was completed by two 0 mV depolarization test pulses (TP1 and TP2) lasting 50 ms. The conditional voltage between the two depolarization pulses was set near the half-inactivation voltage (lasting 8 s). […] The data acquisition was repeated at an interval of 20 s and the current peak was measured at the two test pulses.
# When the current of the Nav channel recorded by the whole cell was stable, the drug was administered, after each drug concentration was applied for 5 minutes (or the current was stable), the next concentration would be tested, and multiple concentrations would be tested for each test compound. The cover glass covered with cells was placed in the recording bath of an inverted microscope, the test compound and the external liquid without compound flowed through the recording chambers in turns from low concentration to high concentration by gravity perfusion, so as to act on the cells, in the recording, the liquid exchange was carried out by vacuum pump. The current detected in each cell in the compound-free external fluid served as its own control group. Multiple cells were detected independently and repeatedly. All electrophysiological experiments were performed at room temperature.
# First, the current after the action of each drug concentration and the blank control current were normalized, and then the blocking rate corresponding to each drug concentration was calculated. The mean and standard error were calculated for each concentration, and all the above values were calculated by Microsoft Excel 2013. In addition, the half-inhibitory concentration of each compound was calculated by IGOR software with the following equation: retardation rate=1/[1+(IC50/c)^h].
# The dose-dependent effect was nonlinearly fitted with the above equation, wherein, c refers to the drug concentration, IC50 was the half inhibitory concentration, and h refers to the Hill coefficient. The curve fitting and the calculation of IC50 were completed by IGOR software (software version: 6.0.1.0).
# T1 sequence (Q9Y5Y9 whole entry): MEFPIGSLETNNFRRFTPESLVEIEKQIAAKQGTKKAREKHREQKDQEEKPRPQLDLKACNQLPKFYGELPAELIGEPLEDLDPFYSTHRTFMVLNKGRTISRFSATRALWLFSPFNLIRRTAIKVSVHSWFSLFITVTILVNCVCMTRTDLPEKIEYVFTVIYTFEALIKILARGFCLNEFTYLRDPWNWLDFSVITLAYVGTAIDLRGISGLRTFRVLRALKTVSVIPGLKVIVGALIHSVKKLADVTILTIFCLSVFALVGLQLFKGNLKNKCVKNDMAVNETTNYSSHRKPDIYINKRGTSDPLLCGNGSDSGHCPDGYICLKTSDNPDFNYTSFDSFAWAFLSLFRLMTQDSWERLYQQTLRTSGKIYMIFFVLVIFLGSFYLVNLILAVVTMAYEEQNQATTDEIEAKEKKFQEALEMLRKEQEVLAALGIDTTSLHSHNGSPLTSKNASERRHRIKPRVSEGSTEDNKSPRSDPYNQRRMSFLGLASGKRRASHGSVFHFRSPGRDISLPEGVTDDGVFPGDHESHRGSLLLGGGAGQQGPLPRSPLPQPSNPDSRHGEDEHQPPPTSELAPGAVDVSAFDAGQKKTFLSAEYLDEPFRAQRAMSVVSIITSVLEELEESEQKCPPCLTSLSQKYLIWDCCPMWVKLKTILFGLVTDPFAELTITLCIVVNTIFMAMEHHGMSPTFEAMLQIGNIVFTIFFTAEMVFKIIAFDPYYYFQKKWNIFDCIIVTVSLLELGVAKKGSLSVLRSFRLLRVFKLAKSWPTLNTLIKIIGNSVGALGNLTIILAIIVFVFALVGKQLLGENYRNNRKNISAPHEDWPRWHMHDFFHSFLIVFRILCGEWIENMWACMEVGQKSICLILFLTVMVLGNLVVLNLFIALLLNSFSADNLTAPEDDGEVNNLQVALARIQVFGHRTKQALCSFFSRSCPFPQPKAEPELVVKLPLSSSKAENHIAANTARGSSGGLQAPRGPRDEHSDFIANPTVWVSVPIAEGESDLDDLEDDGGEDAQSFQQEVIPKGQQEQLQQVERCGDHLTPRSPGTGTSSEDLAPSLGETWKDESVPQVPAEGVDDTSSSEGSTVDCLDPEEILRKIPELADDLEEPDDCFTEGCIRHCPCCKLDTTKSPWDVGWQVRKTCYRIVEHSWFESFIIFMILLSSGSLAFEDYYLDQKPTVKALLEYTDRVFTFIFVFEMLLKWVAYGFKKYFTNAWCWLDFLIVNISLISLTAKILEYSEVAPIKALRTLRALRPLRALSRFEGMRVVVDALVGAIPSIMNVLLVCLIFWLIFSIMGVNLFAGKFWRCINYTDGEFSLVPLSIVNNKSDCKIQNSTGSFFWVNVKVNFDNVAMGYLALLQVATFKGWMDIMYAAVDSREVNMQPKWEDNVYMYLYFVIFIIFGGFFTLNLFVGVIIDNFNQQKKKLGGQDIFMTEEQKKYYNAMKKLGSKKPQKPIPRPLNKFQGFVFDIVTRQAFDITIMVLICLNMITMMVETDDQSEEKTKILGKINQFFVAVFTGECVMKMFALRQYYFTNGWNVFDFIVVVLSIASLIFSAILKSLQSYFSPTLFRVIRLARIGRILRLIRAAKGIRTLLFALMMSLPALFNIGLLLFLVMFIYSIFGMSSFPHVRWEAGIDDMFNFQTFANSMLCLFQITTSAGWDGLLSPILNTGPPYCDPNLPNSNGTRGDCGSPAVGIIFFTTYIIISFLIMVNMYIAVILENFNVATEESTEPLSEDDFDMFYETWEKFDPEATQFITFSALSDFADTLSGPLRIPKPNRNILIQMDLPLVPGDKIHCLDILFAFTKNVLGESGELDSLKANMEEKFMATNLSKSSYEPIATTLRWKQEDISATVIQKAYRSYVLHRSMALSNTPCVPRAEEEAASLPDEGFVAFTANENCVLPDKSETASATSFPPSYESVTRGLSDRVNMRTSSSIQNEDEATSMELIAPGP
row,Compound,IC50 [nM]
1,O=C(Nc1ccc[n+](O)c1)c1c(Oc2ccc(OC(F)(F)F)cc2)ccc(C(F)(F)F)c1F [Embodiment A42],3.6
2,O=C(Nc1ccc[n+](O)c1)c1c(Oc2ccc(OC(F)(F)F)cc2)ccc(OC(F)(F)F)c1F [Embodiment A19],10
3,O=C(Nc1cc[n+]([O-])nc1)c1c(Oc2ccc(OC(F)(F)F)cc2)ccc(C(F)(F)F)c1Cl [Embodiment A27],0.64
4,O=C(Nc1ccc[n+](O)c1)c1c(Oc2ccc(OC(F)(F)F)cc2)ccc(C(F)(F)F)c1Cl [Embodiment A57],1.8
5,O=C(Nc1ccn[n+]([O-])c1)c1cc(Cl)c(Cl)cc1Oc1ccc(OC(F)(F)F)c(F)c1 [Embodiment A38],7.3
6,O=C(Nc1ccc[n+]([O-])c1)c1c(Oc2ccc(OC(F)(F)F)cc2)cc(Cl)c(Cl)c1F [Embodiment A22],0.32
7,O=C(Nc1cc[n+]([O-])nc1)c1cc(Cl)c(Cl)cc1Oc1ccc(OC(F)(F)F)c(F)c1 [Embodiment A37],3.2
8,O=C(Nc1cc[n+]([O-])nc1)c1c(Oc2ccc(OC(F)(F)F)cc2)ccc(Br)c1F [Embodiment A33],4.6
9,O=C(Nc1cc[n+]([O-])nc1)c1cc(Cl)c(Cl)cc1Oc1ccc(OC(F)(F)F)cc1 [Embodiment A35],3
10,COc1cc(F)ccc1Oc1cc(Cl)c(Cl)cc1C(=O)Nc1ccc[n+]([O-])c1 [Embodiment A5],7.4

# Results, then the compound that gave them:
row,IC50 [nM],Compound
1,0.08,COc1cc(F)ccc1Oc1cc(C(F)(F)F)c(Cl)c(F)c1C(=O)Nc1ccc[n+]([O-])c1 [Embodiment A86]
2,3,O=C(Nc1ccc[n+]([O-])c1)c1cc(Cl)c(C(F)(F)F)cc1Oc1ccc(F)cc1C1CC1 [Embodiment A106]
3,10.2,O=C(Nc1cc[n+]([O-])nc1)c1c(Oc2ccc(OC(F)(F)F)cc2)cnc(C(F)(F)F)c1F [Embodiment A61]
4,3.2,O=C(Nc1ccc[n+]([O-])c1)c1c(Oc2ccc(OC(F)(F)F)cc2)ccc(I)c1F [Embodiment A73]
5,3.5,O=C(Nc1ccc[n+](O)c1)c1c(Oc2ccc(OC(F)(F)F)cc2)ccc(Br)c1F [Embodiment A74]
6,8.4,O=C(Nc1cc[n+]([O-])nc1)c1c(F)cc(C(F)(F)F)cc1Oc1ccc(OC(F)(F)F)cc1 [Embodiment A80]

# Same assay, conditions: against NaV1.8 at 100 nM, CHO cell line stably expressing Nav1.8, patch clamp
row,Compound,Blocking rate (%) @100 nM [%]
1,O=C(Nc1ccc[n+]([O-])c1)c1c(Oc2ccc(OC(F)F)cc2)ccc(C(F)(F)F)c1F [Embodiment A16],85.08
2,O=C(Nc1ccc[n+]([O-])c1)c1c(Oc2ccc(F)cc2Cl)ccc(C(F)(F)F)c1F [Embodiment A50],79.66
3,O=C(Nc1ccn[n+]([O-])c1)c1cc(Cl)c(Cl)cc1Oc1ccc(OC(F)(F)F)cc1 [Embodiment A36],87.40
4,O=C(Nc1ccn[n+]([O-])c1)c1c(Oc2ccc(OC(F)(F)F)cc2)ccc(C(F)(F)F)c1F [Embodiment A45],78.46
5,O=C(Nc1ccc[n+]([O-])c1)c1c(Oc2ccc(OC(F)(F)F)cc2)cnc(C(F)(F)F)c1F [Embodiment A59],87.57
6,O=C(Nc1cc[n+]([O-])cc1)c1c(Oc2ccc(OC(F)(F)F)cc2)ccc(C(F)(F)F)c1F [Embodiment A44],77.61
7,O=C(Nc1ccc[n+]([O-])c1)c1c(Cl)cc(C(F)(F)F)cc1Oc1ccc(OC(F)(F)F)cc1 [Embodiment A29],87.63
8,O=C(Nc1ccc[n+]([O-])c1)c1c(Oc2ccc(OC(F)(F)F)cc2)ccc(C(F)(F)C(F)(F)F)c1F [Embodiment A18],96.02
9,O=C(Nc1ccc[n+]([O-])c1)c1c(Oc2ccc(OC(F)(F)F)cc2F)ccc(C(F)(F)F)c1F [Embodiment A52],80.75
10,O=C(Nc1ccc[n+]([O-])c1)c1c(Oc2ccc(OC(F)(F)F)cc2)cc(Cl)c(C(F)(F)F)c1F [Embodiment A40],99.91
11,O=C(Nc1ccc[n+](O)c1)c1c(Oc2ccc(OC(F)(F)F)c(F)c2)cc(Cl)c(Cl)c1F [Embodiment A21],98.02
12,O=C(Nc1cc[n+]([O-])c(Cl)c1)c1c(Oc2ccc(OC(F)(F)F)cc2)ccc(C(F)(F)F)c1F [Embodiment A43],76.10
13,O=C(Nc1ccc[n+](O)c1)c1c(Oc2ccc(OC(F)(F)F)cc2Cl)ccc(C(F)(F)F)c1F [Embodiment A54],94.99
14,O=C(Nc1ccn[n+]([O-])c1)c1c(Oc2ccc(OC(F)(F)F)cc2)ccc(Br)c1F [Embodiment A34],90.16
15,Cc1cc(F)ccc1Oc1cc(S(F)(F)(F)(F)F)ccc1C(=O)Nc1ccc[n+]([O-])c1 [Embodiment A8],81.85
16,O=C(Nc1ccc[n+](O)c1)c1c(Oc2ccc(OCC(F)(F)F)cc2)ccc(C(F)(F)F)c1F [Embodiment A53],85.77

# More lines, now with the values ahead:
row,Blocking rate (%) @100 nM [%],Compound
1,96.55,COc1cc(Oc2ccc(OC(F)(F)F)cc2)c(C(=O)Nc2ccc[n+]([O-])c2)c(F)c1C(F)(F)F [Embodiment A78]
2,98.42,COc1c(Cl)c(C(F)(F)F)cc(Oc2ccc(F)cc2C)c1C(=O)Nc1ccc[n+]([O-])c1 [Embodiment A105]
3,93.13,O=C(Nc1ccc[n+]([O-])c1)c1c(Oc2ccc(OC(F)(F)F)cc2)cnc(C(F)(F)F)c1Cl [Embodiment A63]
4,84.98,O=C(Nc1cc[n+]([O-])nc1)c1c(Oc2ccc(OC(F)(F)F)c(F)c2)cnc(C(F)(F)F)c1F [Embodiment A83]
5,97.60,O=C(Nc1cc[n+]([O-])cc1)c1c(Oc2ccc(OC(F)(F)F)cc2)cc(Cl)c(Cl)c1F [Embodiment A100]
6,95.60,Cc1cc(F)ccc1Oc1cc(C(F)(F)F)c(Br)cc1C(=O)Nc1ccc[n+]([O-])c1 [Embodiment A107]
7,98.47,O=C(Nc1ccc[n+]([O-])c1)c1c(Oc2ccc(OCC(F)(F)F)cc2)cc(Cl)c(Cl)c1F [Embodiment A101]
8,89.79,O=C(Nc1ccc[n+](O)c1)c1c(Oc2ccc(OC(F)(F)F)c(F)c2)cnc(C(F)(F)F)c1F [Embodiment A62]
9,95.70,O=C(Nc1ccc[n+]([O-])c1)c1c(Oc2ccc(OC(F)(F)F)cc2)ccc(CC2CC2)c1F [Embodiment A98]
10,99.42,O=C(Nc1ccc[n+]([O-])c1)c1c(Oc2ccc(F)cc2C2CC2)cc(C(F)(F)F)c(Cl)c1F [Embodiment A111]
11,89.50,Cc1cc(Oc2ccc(OC(F)(F)F)cc2)c(C(=O)Nc2ccc[n+]([O-])c2)cc1C(F)(F)F [Embodiment A90]
12,96.92,O=C(Nc1ccc[n+]([O-])c1)c1cc(Cl)c(C(F)(F)F)cc1Oc1ccc(F)cc1OC1CC1 [Embodiment A108]
13,97.93,Cc1cc(F)ccc1Oc1cc(C(F)(F)F)c(Cl)c(F)c1C(=O)Nc1ccc[n+]([O-])c1 [Embodiment A104]
14,86.65,O=C(Nc1ccc[n+]([O-])c1)c1cc(C(F)(F)F)c(C2CC2)cc1Oc1ccc(OC(F)(F)F)cc1 [Embodiment A97]
15,98.75,Cc1cc(F)ccc1Oc1cc(C(F)(F)F)c(Br)c(F)c1C(=O)Nc1ccc[n+]([O-])c1 [Embodiment A110]
16,88.78,O=C(Nc1ccc[n+]([O-])c1)c1cc(Cl)c(Br)cc1Oc1ccc(OC(F)(F)F)cc1 [Embodiment A96]
17,92.81,O=C(Nc1ccc[n+]([O-])c1)c1cc(Cl)c(OC(F)(F)F)cc1Oc1ccc(OC(F)(F)F)cc1 [Embodiment A91]
18,88.87,O=C(Nc1ccc[n+]([O-])c1)c1c(Oc2ccc(OC(F)(F)F)cc2)ccc(Cl)c1F [Embodiment A75]
19,85.44,Cc1cc(Oc2ccc(OC(F)(F)F)cc2)c(C(=O)Nc2ccc[n+]([O-])c2)cc1Cl [Embodiment A92]
